Measurements taken from US20250296938A1, “Compounds that Interact with the Ras Superfamily for the Treatment of Cancers, Inflammatory Diseases, Rasopathies, and Fibrotic Disease” (SHY Therapeutics, LLC, priority 2018, published 2025).
Like-named read-outs stand apart in the source and are kept apart here.

Columns and labels:
Assay in all cases: Ras GTP binding domain inhibition assay (Cy3-GTP/Cy5-GTP competition)
KRas G12D mutant = target: T1, KRas G12D mutant (Homo sapiens, UniProt P01116, G12D)
T1 construct: fused on or other part: His tag, used for capture on nickel-coated plates
Experimental: (§1) The following method was developed as specific assay for the following proteins: KRas wild type, KRas Q61H mutant, KRas G12C mutant, KRas G12D mutant, HRas wild type, Rac-1, and Rho-A.
(§2) • 25 mM Tris-HCl, pH 7.4 • 27 mM KCl • 137 mM NaCl • 1 mM MgCl2 • 1 mM DTT
(§3) • 50 mM Tris-HCl, pH 7.0 • 1 mM MgCl2 • 1 mM DTT
(§4) The small GTPases proteins: KRas wild type. KRas Q61H mutant, KRas G12C mutant, KRas G12D mutants, HRas wild type, Rac-1, and Rho-A were expressed as His-tagged proteins. In addition, the Guanosine nucleotide Exchange Factor (GEF) Sos protein (residues 556-1049) was expressed as a His-tagged protein. In cells, the guanine nucleotide exchange factor Sos protein promotes activation of Ras proteins by stimulating an exchange of GDP for GTP. The inclusion of Sos to the Ras GTP binding domain inhibition assay may be considered as an alternative representation of physiological cellular conditions for evaluating the inhibitory activity of some of the tested small molecules.
(§5) For the assay, all purified small GTPases proteins were diluted in Buffer-I or Buffer-II to a final concentration of 10-30 μg/mL. 200 μL of each diluted protein was added to a nickel-coated 96-well plate and incubated overnight at 4° C. Then the protein solution was discarded and 200 μL of Buffer-I or Buffer-II was added to each well in the presence of 1% DMSO. Compounds to be tested were added to the protein-coated wells at final concentration of 20 μM, and incubated for 3 hours at room temperature with and without […] of Sos added to the final hour of the incubation. When performing IC50 measurements a serial dilution of all tested concentrations was added. Then Cy3-GTP or Cy5-GTP was added to each well to a final concentration of 100 nM. The labeled GTP was incubated for 45 minutes at room temperature. Following GTP incubation, wells were washed 3× in Buffer-I or Buffer-II and 200 μL of Buffer-I or Buffer-II was added to each well. Following washes, the amount of bound labeled-GTP was measured using a SpectraMax M3 (Molecular Devices).

KRas Q61H mutant = test system: KRas Q61H mutant; parameters: species or system human; conditions: 20 μM
Experimental: as §1, §2, §3, §4, §5

KRas G12C mutant = test system: KRas G12C mutant; parameters: species or system human; conditions: 20 μM; for KRas G12C mutant + SOS: % inh.: with SOS; for KRas G12C mutant: % inh.: without SOS
Experimental: as §1, §2, §3, §4, §5

KRas wild type = test system: KRas wild type; parameters: species or system human; conditions: 20 μM; for KRas wild type: % inh.: without SOS; for KRas wild type % inh.: without SOS (Table 7A)
Experimental: as §1, §2, §3, §4, §5

[1] = 20 μM, with SOS, read-out: KRas G-12D mutant + SOS: % inh.
[2] = 20 μM, without SOS, read-out: KRas G12D mutant: % inh.
[3] = at 20 μM, with SOS, read-out: KRas G12D mutant + SOS: % inh.
[4] = at 20 μM, without SOS, read-out: KRas G12D mutant: % inh.
[5] = 20 μM, with SOS (Table 7A), read-out: KRas G12D mutant + SOS: % inh.
[6] = 20 μM, without SOS (Table 7A), read-out: KRas G12D mutant: % inh.

inhibition at 20 µM (KRas G12D mutant; [1]) [%] | inhibition at 20 µM (KRas G12D mutant; [2]) [%] | KRas Q61H mutant + SOS: % inh. (KRas Q61H mutant; with SOS) | KRas Q61H mutant: % inh. (KRas Q61H mutant; without SOS) | KRas G12C mutant + SOS: % inh. (KRas G12C mutant) | KRas G12C mutant: % inh. (KRas G12C mutant) | KRas wild type + SOS: % inh. (KRas wild type; with SOS) | KRas wild type: % inh. (KRas wild type) | inhibition at 20 µM (KRas G12D mutant; [5]) [%] | inhibition at 20 µM (KRas G12D mutant; [6]) [%] | KRas Q61H mutant + SOS: % inh. (KRas Q61H mutant; with SOS (Table 7A)) | KRas Q61H mutant: % inh. (KRas Q61H mutant; without SOS (Table 7A)) | KRas wild type + SOS: % inh. (KRas wild type; with SOS (Table 7A)) | KRas wild type % inh. (KRas wild type) | Structure (SMILES) | also measured
– | – | – | – | – | – | – | – | 51 to 75 | 51 to 75 | D (76-100% inhibition) | C (51-75% inhibition) | D (76-100% inhibition) | C (51-75% inhibition) | COc1cccc(-c2sc3nc(-c4nccn4C)nc(N[C@@H]4CC[C@H](OC)C4)c3c2-c2ccccc2)c1F [drawing 884] | –
– | – | – | – | – | – | – | – | 76 to 100 | 76 to 100 | D (76-100% inhibition) | D (76-100% inhibition) | D (76-100% inhibition) | D (76-100% inhibition) | COc1c(F)cccc1-c1sc2nc(-c3nccn3C)nc(N[C@@H]3CC[C@H](OC)C3)c2c1-c1ccccc1 [drawing 887] | –
– | – | – | – | – | – | – | – | 51 to 75 | 51 to 75 | D (76-100% inhibition) | C (51-75% inhibition) | D (76-100% inhibition) | C (51-75% inhibition) | COc1cccc(-c2sc3nc(-c4nccn4C)nc(N[C@@H]4CC[C@H](OC)C4)c3c2C)c1F [drawing 894] | –

The remaining lines, values behind:

Structure (SMILES) | inhibition at 20 µM (KRas G12D mutant; [1]) [%] | inhibition at 20 µM (KRas G12D mutant; [2]) [%] | KRas Q61H mutant + SOS: % inh. (KRas Q61H mutant; with SOS) | KRas Q61H mutant: % inh. (KRas Q61H mutant; without SOS) | KRas G12C mutant + SOS: % inh. (KRas G12C mutant) | KRas G12C mutant: % inh. (KRas G12C mutant) | KRas wild type + SOS: % inh. (KRas wild type; with SOS) | KRas wild type: % inh. (KRas wild type) | inhibition at 20 µM (KRas G12D mutant; [5]) [%] | inhibition at 20 µM (KRas G12D mutant; [6]) [%] | KRas Q61H mutant + SOS: % inh. (KRas Q61H mutant; with SOS (Table 7A)) | KRas Q61H mutant: % inh. (KRas Q61H mutant; without SOS (Table 7A)) | KRas wild type + SOS: % inh. (KRas wild type; with SOS (Table 7A)) | KRas wild type % inh. (KRas wild type) | also measured
COc1nscc1-c1sc2nc(-c3nccn3C)nc(N3CCC(OC)C3)c2c1-c1ccccc1.Cl (centres unmarked) | 51 to 75 | 26 to 50 | D (76-100% inhibition) | C (51-75% inhibition) | D (76-100% inhibition) | B (26-50% inhibition) | D (76-100% inhibition) | B (26-50% inhibition) | – | – | – | – | – | – | –
COCCn1cc(-c2sc3nc(-c4nccn4C)nc(N4CCC(OC)C4)c3c2-c2ccccc2)cn1.Cl (centres unmarked) | 51 to 75 | 51 to 75 | C (51-75% inhibition) | B (26-50% inhibition) | D (76-100% inhibition) | D (76-100% inhibition) | C (51-75% inhibition) | D (76-100% inhibition) | – | – | – | – | – | – | –
COC1CCN(c2nc(-c3nccn3C)nc3sc(-c4cnc(C5CC5)o4)c(-c4ccccc4)c23)C1.Cl (centres unmarked) | 51 to 75 | 51 to 75 | C (51-75% inhibition) | B (26-50% inhibition) | C (51-75% inhibition) | C (51-75% inhibition) | C (51-75% inhibition) | C (51-75% inhibition) | – | – | – | – | – | – | –
COc1ncccc1-c1sc2nc(-c3nccn3C)nc(N3CCC(OC)C3)c2c1-c1ccccc1.Cl (centres unmarked) | 51 to 75 | 51 to 75 | C (51-75% inhibition) | C (51-75% inhibition) | C (51-75% inhibition) | C (51-75% inhibition) | C (51-75% inhibition) | C (51-75% inhibition) | – | – | – | – | – | – | –
COC1CCN(c2nc(-c3nccn3C)nc3sc(-c4cccnc4)c(-c4ccccc4)c23)C1.Cl (centres unmarked) | 51 to 75 | 51 to 75 | C (51-75% inhibition) | B (26-50% inhibition) | D (76-100% inhibition) | D (76-100% inhibition) | C (51-75% inhibition) | C (51-75% inhibition) | – | – | – | – | – | – | –
COC1CCN(C(=O)c2sc3nc(-c4nccn4C)nc(N[C@H]4C[C@@H](OC)C4)c3c2C2=CC=CCC=C2)C1 (some centres unmarked) | – | – | – | – | – | – | – | – | – | – | – | – | – | – | IC50 (KRas G12D mutant; cell-free, 100 nM Cy3-GTP or Cy5-GTP): 5 to 10 µM
COc1cccc(-c2sc3nc(-c4nccn4C)nc(N[C@@H]4CC[C@H](C=O)C4)c3c2-c2ccccc2)c1F (racemic) | – | – | – | – | – | – | – | – | – | – | – | – | – | – | inhibition at 20 µM (KRas G12D mutant; [3]): 51 to 75%; inhibition at 20 µM (KRas G12D mutant; [4]): 51 to 75%
CO[C@H]1CC[C@@H](Nc2nc(-c3nccn3C)nc3sc(-c4cccc5[nH]ncc45)c(-c4ccccc4)c23)C1 [drawing 889] | – | – | – | – | – | – | – | – | 51 to 75 | 51 to 75 | D (76-100% inhibition) | C (51-75% inhibition) | D (76-100% inhibition) | C (51-75% inhibition) | –
COc1cccc(-c2sc3nc(-c4nc(C)cn4C)nc(N[C@@H]4CC[C@H](OC)C4)c3c2C)c1F [drawing 896] | – | – | – | – | – | – | – | – | 26 to 50 | 1 to 25 | B (26-50% inhibition) | A (1-25% inhibition) | B (26-50% inhibition) | A (1-25% inhibition) | –
CO[C@H]1CC[C@@H](Nc2nc(-c3nc(C)cn3C)nc3sc(-c4cccc5[nH]ncc45)c(C)c23)C1 [drawing 897] | – | – | – | – | – | – | – | – | 26 to 50 | 26 to 50 | B (26-50% inhibition) | B (26-50% inhibition) | B (26-50% inhibition) | B (26-50% inhibition) | –
COc1c(F)cccc1-c1sc2nc(-c3nccn3C)nc(N[C@@H]3CC[C@H](OC)C3)c2c1-c1ccccc1 [drawing 1022] | – | – | – | – | – | – | – | – | – | – | – | – | – | – | inhibition at 20 µM (KRas G12D mutant; [3]): 76 to 100%; inhibition at 20 µM (KRas G12D mutant; [4]): 76 to 100%
CO[C@H]1CC[C@@H](Nc2nc(-c3nccn3C)nc3sc(-c4cccc5[nH]ncc45)c(-c4ccccc4)c23)C1 [drawing 1024] | – | – | – | – | – | – | – | – | – | – | – | – | – | – | inhibition at 20 µM (KRas G12D mutant; [3]): 51 to 75%; inhibition at 20 µM (KRas G12D mutant; [4]): 51 to 75%
